Here are results for 1 molecule from paper doi:10.1101/365775v1 (biorxiv, 2018).

The assay concerns the target T1, mSec18 (monomeric Sec18; Sec18His8) (Saccharomyces cerevisiae, UniProt P18759).
T1 sequence (P18759 1-758): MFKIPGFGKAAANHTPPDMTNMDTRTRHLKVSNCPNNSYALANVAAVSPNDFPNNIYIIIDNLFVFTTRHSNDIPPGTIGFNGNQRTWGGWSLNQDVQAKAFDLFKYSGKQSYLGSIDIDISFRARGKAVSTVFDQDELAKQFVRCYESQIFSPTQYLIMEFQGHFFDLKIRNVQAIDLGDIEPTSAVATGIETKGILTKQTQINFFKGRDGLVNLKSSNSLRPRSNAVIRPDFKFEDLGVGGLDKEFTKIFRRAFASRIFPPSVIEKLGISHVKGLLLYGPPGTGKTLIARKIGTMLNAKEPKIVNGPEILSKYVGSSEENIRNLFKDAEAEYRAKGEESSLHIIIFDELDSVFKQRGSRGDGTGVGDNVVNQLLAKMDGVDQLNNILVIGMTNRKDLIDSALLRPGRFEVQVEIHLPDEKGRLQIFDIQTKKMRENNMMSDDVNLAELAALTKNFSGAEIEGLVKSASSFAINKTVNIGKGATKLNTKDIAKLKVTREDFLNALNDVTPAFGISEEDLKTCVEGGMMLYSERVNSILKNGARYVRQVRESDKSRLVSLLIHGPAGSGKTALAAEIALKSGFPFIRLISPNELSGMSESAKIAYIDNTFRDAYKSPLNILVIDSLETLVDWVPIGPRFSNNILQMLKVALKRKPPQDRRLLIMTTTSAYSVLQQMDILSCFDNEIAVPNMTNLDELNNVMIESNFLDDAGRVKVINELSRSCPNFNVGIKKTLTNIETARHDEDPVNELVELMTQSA
As to the kind of experiment: microscale thermophoresis. Type of assay: binding.

The Kd is the concentration at which binding is half-saturated. With `Nc1ncnc2c1ncn2[C@@H]1O[C@H](COP(=O)(O)OP(=O)(O)OP(=O)(O)O)[C@@H](O)[C@H]1O` [ATP], binding was characterised by a dissociation constant (Kd) of 56 ± 16 µM.
